Source: patent US20110028420A1, “Regression of Established Atherosclerotic Plaques, and Treating Sudden-Onset Asthma Attacks, using PARP Inhibitors” (priority 2008, published 2011)
Marks after values point to notes of the source that are not given here.

Experiments:
[1] = test system: rat; conditions: cited from earlier work; for Anti-inflammatory effects in gut inflammation: post-injury administration; for Accumulation of poly (ADP-ribose) in ileum and colon: splanchnic artery occlusion-shocked rats, dinitrobenzene sulfonic acid-treated rats
[2] = biological target: T1, PARP1 (Mus musculus, UniProt P11103); conditions: cortical neuron cultures; cited from earlier work
T1 construct: host or cells: cortical neuron cultures
T1 sequence (P11103 2-1013 limits assumed): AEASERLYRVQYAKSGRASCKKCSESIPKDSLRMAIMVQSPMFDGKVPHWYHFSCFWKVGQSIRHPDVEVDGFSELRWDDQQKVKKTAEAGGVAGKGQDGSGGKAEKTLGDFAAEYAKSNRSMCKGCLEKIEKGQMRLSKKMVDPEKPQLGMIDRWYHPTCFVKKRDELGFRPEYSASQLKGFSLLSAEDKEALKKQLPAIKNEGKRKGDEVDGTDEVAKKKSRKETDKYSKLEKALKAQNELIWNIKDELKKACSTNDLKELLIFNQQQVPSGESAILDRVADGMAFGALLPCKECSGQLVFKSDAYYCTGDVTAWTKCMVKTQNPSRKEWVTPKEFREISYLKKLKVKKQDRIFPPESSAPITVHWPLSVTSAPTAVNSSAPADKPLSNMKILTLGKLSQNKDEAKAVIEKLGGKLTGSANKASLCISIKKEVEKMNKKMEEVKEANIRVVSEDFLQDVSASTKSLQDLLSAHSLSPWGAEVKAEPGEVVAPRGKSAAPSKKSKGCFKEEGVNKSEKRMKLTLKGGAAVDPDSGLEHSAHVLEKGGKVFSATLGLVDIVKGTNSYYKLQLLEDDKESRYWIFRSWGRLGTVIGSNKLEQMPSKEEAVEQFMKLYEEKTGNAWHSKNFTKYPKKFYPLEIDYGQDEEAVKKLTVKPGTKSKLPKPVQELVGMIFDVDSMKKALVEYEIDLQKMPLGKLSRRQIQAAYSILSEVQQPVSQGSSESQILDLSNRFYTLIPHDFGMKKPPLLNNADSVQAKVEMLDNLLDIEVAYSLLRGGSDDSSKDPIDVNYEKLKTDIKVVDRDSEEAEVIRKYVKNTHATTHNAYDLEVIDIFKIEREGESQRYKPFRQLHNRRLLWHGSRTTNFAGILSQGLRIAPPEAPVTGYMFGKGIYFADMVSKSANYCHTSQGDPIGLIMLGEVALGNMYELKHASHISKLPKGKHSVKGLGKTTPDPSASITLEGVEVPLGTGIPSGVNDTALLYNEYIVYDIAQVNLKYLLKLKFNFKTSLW

[3] = test system: MCP-1; assay: Quantitative RT-PCR of MCP-1 in thoracic aorta; assay type: in vivo, mice; conditions: normalized versus β-actin
Text: (§1) RNA was extracted from thoracic aortas, and cDNA was generated by standard methods. PCR Primers for MCP-1 and for actin were as described in C. Hans et al., “Thieno[2,3-c]isoquinolin-5-one (TIQ-A), a potent poly(ADP-ribose) polymerase inhibitor, promotes atherosclerotic plaque regression in high fat diet-fed ApoE-deficient mice: effects on inflammatory markers and lipid content,” J. Pharm. Exp. Ther., vol. 329, pp. 150-158 (2009, published online Jan. 5, 2009). Amplification, detection, and data analysis were performed with the iCycler real-time PCR system (Bio-Rad Laboratories, Hercules, Calif.).
Several pathways may play a role in the regression of plaques, including some that interfere with the recruitment and retention of monocytes, macrophages and foam cells, cells that appear to be required for the maintenance of advanced plaques. In particular, the continuing recruitment of macrophages into lesions is considered a major factor in maintaining the size and complexity of atherosclerotic plaques. […] To confirm that the decrease in CD68-positive cells was associated with reduced expression of chemotactic factors, we used quantitative RT-PCR to monitor the effect of TIQ-A on MCP-1 expression. We measured transcription of the MCP-1 gene in the thoracic aorta using primers specific for murine MCP-1. Measured values were normalized versus measured levels of transcription of the β-actin gene.

[4] = test system: TNF; assay: Quantitative RT-PCR of TNF; assay type: in vivo, mice; conditions: Group 6
[5] = test system: C57BL/6 ApoE−/− mice; assay: Atherosclerotic plaque size and number in aortas of high-fat-diet-fed ApoE−/− mice (en face Oil-Red-O staining); assay type: in vivo
Text: (§2) C57BL/6 ApoE^−/− mice (Jackson Laboratory, Bar Harbor, Me.) were housed and bred in a pathogen-free animal care facility at LSUHSC (New Orleans, La.), and were given full access to laboratory rodent chow and water. Principles of laboratory animal care were followed (NIH publication No. 86-23, revised 1985). Experimental protocols were approved by the LSUHSC Animal Care and Use Committee. The animals were divided into six groups to provide proper controls, and to allow calculation of the significance of the results. All Groups were ApoE^−/− mice. The mice were fed a regular diet or a high fat diet for 12 or 16 weeks; in some cases mice that had been fed a high fat diet for 12 weeks were switched to a regular diet for the final 4 weeks (16 weeks total). Some mice were given injections of TIQ-A during the final four weeks, while others were injected with vehicle as controls:
(§3) The high-fat diet (Harlan Teklad, Madison, Wis.) contained 21% fat by weight (0.15% cholesterol). The regular diet was normal laboratory rodent chow. Controls were given i.p. injections of vehicle three times per week, during the final four weeks. Experimental Groups received i.p. injections of the PARP inhibitor thieno[2,3-c]isoquinolin-5-one (TIQ-A) (Sigma-Aldrich, St Louis, Mo.) at the rate of 3 mg/kg, three times per week, during the last 4 weeks. At the conclusion of each protocol, the mice were fasted, anesthetized with ketamine/xylazine (60 and 3 mg/kg, respectively), and blood was drawn for serum preparation.
(§4) Perfusion-fixed aortas were dissected and prepared either for en face, Oil-Red-O staining using standard protocols, or for embedding in paraffin. Tissues were sectioned and were stained following standard protocols with haematoxylin and eosin (H&E), trichrome staining, or immunohistochemistry (IHC). Lesion areas were assessed as described in K. Oumona-Benachour et al. (2007). IHC used antibodies against murine smooth muscle actin (SMA) (Santa Cruz Biotechnologies, Santa Cruz, Calif.), or antibodies against CD68. Immunoreactivity was assessed in captured images of immunostained stained sections as described in K. Oumona-Benachour et al. (2007).

[6] = test system: ICAM-1; assay: Quantitative RT-PCR of ICAM-1 in thoracic aorta; assay type: in vivo; conditions: thoracic aortas of Group 6 mice
Text: as §1
In addition to MCP-1, the recruitment and their retention of monocytes and macrophages within atherosclerotic plaques requires the expression of adhesion molecules by endothelial and intimal cells. In particular, the adhesion molecule ICAM-1 expression is expressed in the later stages of plaques.

[7] = test system: OVA-specific IgE; assay: OVA-specific IgE in BAL fluid (sandwich ELISA); assay type: in vivo, mice; conditions: 24 hours post-challenge
Method: (§5) Mice were bred in a pathogen-free facility at the Louisiana State University Health Science Center (LSUHSC), New Orleans, La., and were given unlimited access to sterilized chow and water. Animal maintenance, experimental protocols, and procedures were approved by the LSUHSC Animal Care & Use Committee. C57BL/6 mice were purchased from Jackson Laboratories (Bar Harbor, Me.). Six-week old C57BL/6 mice (n z 5) were sensitized with two, 100 μg i.p. injections of Grade V chicken ovalbumin (OVA) (Sigma-Aldrich, St. Louis Mo.), mixed with 2 mg aluminum hydroxide in saline. The two injections were given seven days apart. One week after the second sensitization the mice were placed in a Plexiglas chamber and challenged with aerosolized ovalbumin (3% OVA in saline, generated by a Bennett nebulizer, DeVilbiss, Pa.). The challenged mice were held in the chamber with the aerosolized OVA for 30 min. […]
(§6) A final volume of 5 ml saline was used in BAL to assess inflammatory cells (48 hours post OVA-challenge), or 1 ml saline was used to assess cytokines or IgE (24 hours post OVA-challenge). […] Mucin was assessed essentially as described in L. Whittaker et al., Am. […] OVA-specific IgE was quantified by a sandwich ELISA (Serotec, Raleigh, N.C.) essentially as described in Oumona et al. (2006).

[8] = test system: C57BL/6 mice; assay: Eosinophil and inflammatory cell infiltration in lungs and BAL fluid of OVA-sensitized and challenged mice; assay type: in vivo
Method: (§7) Mice were bred in a pathogen-free facility at the Louisiana State University Health Science Center (LSUHSC), New Orleans, La., and were given unlimited access to sterilized chow and water. Animal maintenance, experimental protocols, and procedures were approved by the LSUHSC Animal Care & Use Committee. C57BL/6 mice were purchased from Jackson Laboratories (Bar Harbor, Me.). Six-week old C57BL/6 mice (n z 5) were sensitized with two, 100 μg i.p. injections of Grade V chicken ovalbumin (OVA) (Sigma-Aldrich, St. Louis Mo.), mixed with 2 mg aluminum hydroxide in saline. The two injections were given seven days apart. One week after the second sensitization the mice were placed in a Plexiglas chamber and challenged with aerosolized ovalbumin (3% OVA in saline, generated by a Bennett nebulizer, DeVilbiss, Pa.). The challenged mice were held in the chamber with the aerosolized OVA for 30 min. Additional groups of mice were treated by the same protocol, except that they received 6 mg/kg TIQ-A (i.p.) 2 hours prior to challenge, 1 hour post-challenge, or 6 hours post-challenge with OVA. Control groups were neither sensitized, nor challenged. The mice used in each experiment were from the same litter or the same family. Mice were allowed to recover, and then killed by CO2 asphyxiation after 24 or 48 hours. The sacrificed mice were subjected to bronchio-alveolar lavage (BAL), or their lung tissues were dissected, fixed, and processed for histological analysis.
(§8) A final volume of 5 ml saline was used in BAL to assess inflammatory cells (48 hours post OVA-challenge), or 1 ml saline was used to assess cytokines or IgE (24 hours post OVA-challenge). Formalin-fixed lungs were sectioned and subjected to haematoxylin and eosin (H&E), Periodic Acid-Schiff (PAS)-staining using standard protocols. Mucin was assessed essentially as described in L. Whittaker et al., Am. J. Respir. Cell. Mol. Biol., vol. 27, pp. 593-602 (2002). […] OVA-specific IgE was quantified by a sandwich ELISA (Serotec, Raleigh, N.C.) essentially as described in Oumona et al. (2006).

[9] = test system: CCR2; assay: Expression of the MCP-1 receptor CCR2; assay type: in vivo; conditions: TIQ-A-treated mice
[10] = test system: IL-4, IL-5 and IL-13; assay: Th2 cytokines in BAL fluid of OVA-challenged mice (Bio-Rad Bioplex); assay type: in vivo; conditions: BAL 24 hours after challenge; TIQ-A after versus before OVA challenge
Method: as §5, §6

[11] = Fasted plasma cholesterol and LDL (Cholestech LDX); assay type: in vivo, mice; conditions: after overnight fasting; Group 6
Method: as §3
Plasma cholesterol and LDL were analyzed using a commercially available kit according to the manufacturer's instructions (Cholestech LDX, Hayward, Calif.).

[12] = test system: C57BL/6 ApoE−/− mice; assay: Histology, trichrome staining and immunohistochemistry (SMA, CD68, MCP-1) of atherosclerotic plaques; assay type: in vivo
Text: as §2, §3, §4

[13] = test system: mice; conditions: administration prior to allergen challenge; cited from earlier work
[14] = test system: C57BL/6 mice; assay: Airway hyperresponsiveness: lung resistance to methacholine by forced oscillation; assay type: in vivo; conditions: TIQ-A post-OVA challenge; methacholine 50 mg/ml, 24 hours after OVA exposure
Method: as §7, with “The mice used in each experiment were from the same litter or the same family. Mice were allowed to recover, and then killed by CO2 asphyxiation after 24 or 48 hours. The sacrificed mice were subjected to bronchio-alveolar lavage (BAL), or their lung tissues were dissected, fixed, and processed for histological analysis.” left out
Twenty-four hours after OVA challenge lung resistance to increasing doses of methacholine (MeCh, Sigma; 0, 25, and 50 mg/ml in isotonic saline) was assessed by forced oscillation, essentially as described in D. You et al., Respir. […]

[15] = test system: C57BL/6 mice; assay: Mucus production in airways of OVA-challenged mice (PAS staining, histological mucin index); assay type: in vivo
Method: as §7, §8

[16] = test system: mice; conditions: chronic administration; cited from earlier work
[17] = test system: PARP-2; conditions: cited from earlier work
[18] = Group 3: high fat diet for 16 weeks, TIQ-A 3 mg/kg i.p. three times per week during last 4 weeks
[19] = Group 6: high fat diet for 12 weeks, then regular diet during last 4 weeks with TIQ-A 3 mg/kg i.p. three times per week

## CN1CCN(Cc2ccc3c(c2)-c2n[nH]c(=O)c4cccc(c24)O3)CC1 [GPI 15427, 10-(4-methyl-piperazin-1-ylmethyl)-2H-7-oxa-1,2-diaza-benzo[de]anthracen-3-one]
[1]
  Anti-inflammatory effects in gut inflammation: potent anti-inflammatory effects
  Accumulation of poly (ADP-ribose) in ileum and colon: diminished

## O=C1NCCc2c(OCCCCN3CCCCC3)cccc21 [3,4-dihydro-5-[4-(1-piperidinyl)butoxy]-1(2H)-isoquinolinone]
[2]
  Induced PARP1 activation: inhibited

## CN(C)[C@@H]1C(O)=C(C(N)=O)C(=O)[C@@]2(O)C(O)=C3C(=O)c4c(O)ccc(Cl)c4[C@@H](O)[C@H]3C[C@@H]12 [demeclocycline]
[2]
  Rank order of potency of tetracycline derivatives: minocycline>doxycycline>demeclocycline>chlortetracycline

## O=C1N=C2SCC=C2c2ccccc21 [TIQ-A, thieno[2,3-c]isoquinolin-5-one]
[3]
  Expression of MCP-1 (RT-PCR): significantly reduced
[4]
  TNF expression (quantitative RT-PCR): significantly down-regulated
[5]; [18]
  Plaque Number (mean ± S.D.) Abdominal Aorta: 5.7 ± 0.94
  Plaque Number (mean ± S.D.) Thoracic Aorta: 6.0 ± 1.53
  Plaque size (median ± S.D.) Abdominal Aorta: 3.06 ± 0.66 mm^2
  Plaque size (median ± S.D.) Thoracic Aorta: 7.18 ± 2.02* mm^2
[5]; Group 6
  Plaque number in the abdominal region (in words): significant reduction in plaque number
  Regression of established plaques, thoracic and abdominal regions of the aorta: statistically significant regression of established plaques
[5]; [19]
  Plaque Number (mean ± S.D.) Abdominal Aorta: 4.0 ± 1.29
  Plaque Number (mean ± S.D.) Thoracic Aorta: 4.20 ± 0.69
  Plaque size (median ± S.D.) Abdominal Aorta: 1.96 ± 0.48 mm^2
  Plaque size (median ± S.D.) Thoracic Aorta: 5.12 ± 1.68*‡† mm^2
[5]; Group 6, difference not statistically significant
  Lesion size in the abdominal region (in words): trended lower
[6]
  Expression of ICAM-1 (quantitative RT-PCR): significantly reduced
[7]; TIQ-A after OVA challenge
  IgE production: almost completely blocked
[7]; TIQ-A prior to OVA challenge
  Levels of OVA-specific IgE in BAL fluid: moderate reduction
[8]; TIQ-A 6 mg/kg i.p. prior to OVA-challenge
  Eosinophil recruitment into lungs: significantly suppressed
[8]; post-challenge administration compared with administration prior to challenge
  Number of eosinophils in BAL fluids: substantially below that seen when the drug was administered prior to challenge
[8]; single TIQ-A i.p. injection one hour or six hours after challenge
  Infiltration of inflammatory cells into the airways: greatly reduced
[9]
  Expression of the MCP-1 receptor, CCR2: no difference
[10]
  Production of IL-4, IL-5 and IL-13 in BAL fluids: more effectively suppressed by administering TIQ-A after the OVA challenge than before challenge
[11]
  LDL level: significantly lowered
  Total cholesterol level: significantly lowered
[12]; Group 6
  CD68 immunoreactivity: significantly reduced
  Collagen density by trichrome staining: significant increase in collagen density
  Fibrous cap by trichrome staining: much thicker fibrous cap
  Foam cells in plaques: fewer foam cells
  Plaque size by microscopic examination: much smaller
  Smooth muscle actin immunoreactivity: significant increase
[12]; TIQ-A-treated mice
  MCP-1 immunoreactivity of plaques: decrease
[13]
  Eosinophil infiltration and associated mucus production in lung airways: suppressed
  Th2 cytokines, including IL-4 IL-5 and IL-13: suppressed
[14]
  Airway hyperresponsiveness to inhaled methacholine: almost completely blocked
[15]; TIQ-A one or six hours after challenge
  PAS-positive goblet cells in lungs: nearly absent
[15]; TIQ-A prior to OVA challenge
  Mucus production (histological mucin index): significantly reduced
[15]; post-challenge treatment with TIQ-A
  Mucus production (histological mucin index): effectively blocked mucus production completely

## CN1CCN(c2ccc3[nH]c(=O)c4ccccc4c3n2)CC1 [GPI 16539, 2-(4-methyl-piperazin-1-yl)-5H-benzo[c][1,5]naphthyridin-6-one]
[1]
  Anti-inflammatory effects in gut inflammation: potent anti-inflammatory effects
  Accumulation of poly (ADP-ribose) in ileum and colon: diminished

## CN(C)CC(=O)Nc1ccc2[nH]c(=O)c3ccccc3c2c1 [PJ34]
[16]
  Plaque formation in atherosclerosis: markedly decreased

## O=C(Oc1cccc2cnccc12)c1ccccc1 [5-benzoyloxyisoquinoline]
[17]
  Selectivity for the PARP-2 isotype over the PARP-1 isotype: 60 fold
